Measured values published in ChEMBL document CHEMBL1133345, “The synthesis and evaluation of 2-substituted-7-(alkylidene)cephalosporin sulfones as beta-lactamase inhibitors” (Bioorg Med Chem Lett, 2000).

Experiments:
[1] = target: Beta-lactamase class C (Enterobacter cloacae, UniProt Q59401); assay: Inhibition of Class C beta-lactamase from Enterobacter cloacae strain P99
[2] = target: Beta-lactamase TEM (Escherichia coli, UniProt P62593); assay: The compound was evaluated for inhibition against Beta-lactamase TEM […]
[3] = target: Beta-lactamase (Staphylococcus aureus, UniProt P00807); assay: The compound was evaluated for inhibition against Beta-lactamase derived from Staphylococcus aureus
Beta-lactamase, sequence (P00807 whole entry): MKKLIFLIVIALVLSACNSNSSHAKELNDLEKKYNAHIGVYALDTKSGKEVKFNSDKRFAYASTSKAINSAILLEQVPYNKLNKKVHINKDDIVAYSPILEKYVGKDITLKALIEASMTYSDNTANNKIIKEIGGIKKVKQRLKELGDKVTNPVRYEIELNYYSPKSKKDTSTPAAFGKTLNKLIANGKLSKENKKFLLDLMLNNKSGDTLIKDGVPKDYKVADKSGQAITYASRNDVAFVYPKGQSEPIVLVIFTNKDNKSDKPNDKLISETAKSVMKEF

Beta-lactamase TEM, sequence (P62593 whole entry): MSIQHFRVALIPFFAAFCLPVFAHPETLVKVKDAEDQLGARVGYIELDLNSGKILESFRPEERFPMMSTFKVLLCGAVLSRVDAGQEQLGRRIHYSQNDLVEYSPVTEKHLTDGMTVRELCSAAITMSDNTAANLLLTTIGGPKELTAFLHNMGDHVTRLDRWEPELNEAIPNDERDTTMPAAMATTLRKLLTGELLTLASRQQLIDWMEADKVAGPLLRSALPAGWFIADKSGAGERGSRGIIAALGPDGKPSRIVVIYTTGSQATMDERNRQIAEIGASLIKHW
Beta-lactamase class C, sequence (Q59401 whole entry): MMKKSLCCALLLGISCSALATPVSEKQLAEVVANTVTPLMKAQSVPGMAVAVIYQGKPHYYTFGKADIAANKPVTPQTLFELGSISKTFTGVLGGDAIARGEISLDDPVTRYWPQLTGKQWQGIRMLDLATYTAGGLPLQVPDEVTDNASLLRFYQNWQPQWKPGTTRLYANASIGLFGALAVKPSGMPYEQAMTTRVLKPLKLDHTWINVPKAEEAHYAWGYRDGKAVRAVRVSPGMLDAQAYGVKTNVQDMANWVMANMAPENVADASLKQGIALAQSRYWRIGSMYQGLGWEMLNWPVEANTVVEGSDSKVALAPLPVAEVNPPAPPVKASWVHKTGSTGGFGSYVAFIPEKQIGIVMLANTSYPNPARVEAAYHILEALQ

SMILES: C=C1C(C)=C(C(=O)O)N2C(=O)/C(=C/C(=O)O)[C@H]2S1(=O)=O
- IC50 [1]: 36.8 µM
- IC50 [2]: 277 µM

SMILES: C=C1C(C)=C(C(=O)O)N2C(=O)/C(=C/c3ccccn3)[C@H]2S1(=O)=O
- IC50 [1]: 0.039 µM
- IC50 [2]: 91.1 µM
- IC50 [3]: 1860 µM

SMILES: C=C1C(CSc2nnnn2C)=C(C(=O)O)N2C(=O)/C(=C/C(=O)OC(C)(C)C)[C@H]2S1(=O)=O
- IC50 [1]: 2.38 µM
- IC50 [2]: 1.13 µM

SMILES: C=C1C(COC(C)=O)=C(C(=O)O)N2C(=O)/C(=C/C(=O)OC(C)(C)C)[C@H]2S1(=O)=O
- IC50 [1]: 1.55 µM

SMILES: CSC(SC)=C1C(C)=C(C(=O)O)N2C(=O)/C(=C/c3ccccn3)[C@H]2S1(=O)=O
- IC50 [1]: 0.51 µM
- IC50 [2]: 173 µM

SMILES: CC(=O)OCC1=C(C(=O)O)N2C(=O)/C(=C/c3ccccn3)[C@H]2S(=O)(=O)C1
- IC50 [1]: 0.498 µM
- IC50 [2]: 34.8 µM
- IC50 [3]: 402 µM

SMILES: CC(=O)OCC1=C(C(=O)O)N2C(=O)/C(=C/C(=O)OC(C)(C)C)[C@H]2S(=O)(=O)C1
- IC50 [1]: 6.56 µM
- IC50 [2]: 0.03 µM
- IC50 [3]: 977 µM

SMILES: C=C1C(COC(C)=O)=C(C(=O)O)N2C(=O)/C(=C/c3ccccn3)[C@H]2S1(=O)=O
- IC50 [1]: 0.165 µM
- IC50 [3]: 733 µM

SMILES: CC1=C(C(=O)O)N2C(=O)/C(=C/c3ccccn3)[C@H]2S(=O)(=O)[C@@H]1Sc1nnnn1C
- IC50 [1]: 29 µM
- IC50 [2]: 31.6 µM
- IC50 [3]: 844 µM

SMILES: C=C1C(COC(C)=O)=C(C(=O)O)N2C(=O)/C(=C/C(=O)O)[C@H]2S1(=O)=O
- IC50 [1]: 2.49 µM
- IC50 [2]: 498 µM
- IC50 [3]: 230 µM

SMILES: C=C1C(C)=C(C(=O)O)N2C(=O)/C(=C/C(=O)OC(C)(C)C)[C@H]2S1(=O)=O
- IC50 [1]: 48.6 µM

SMILES: CC1=C(C(=O)O)N2C(=O)/C(=C/c3ccccn3)[C@H]2S(=O)(=O)C1C (stereo partly drawn)
- IC50 [1]: 3.9 µM
- IC50 [2]: 74.1 µM
- IC50 [3]: 102 µM
